Measurements taken from patent US10925855B2, “Compositions comprising water dispersible nanoparticles of a retinoid compound” (GALDERMA RESEARCH & DEVELOPMENT, priority 2015, dated 2021).

Columns and labels:
[1] = Redispersibility in water; type: physicochemical; settings: addition of water at room temperature
[2] = Stabilizer screening (colloid stability after precipitation); type: physicochemical; settings: Compound A 1.0 mg
Protocol: If the colloid solution was stable over 2 hours (no aggregation, sedimentation, crystal forming), and no aggregation occurred, the sample was lyophilized. • If precipitation occurred, however the colloid solution was not stable over the whole solid formulation procedure, other stabilizers were tested. Results

Redispersibility [1]: not wetted by water
Observation ([2]; 2 mg Klucel EF, 1 mL EtOH, 4 mL water): Aggregated
Observation ([2]; 2 mg Klucel EF, 1 mL IPA, 4 mL water): Aggregated
Observation ([2]; 2 mg Klucel EF, 1 mL MeOH, 4 mL water): Aggregated
Observation ([2]; 2 mg Klucel EF, 1 mL THF, 4 mL water): Aggregated
Observation ([2]; 2 mg Klucel LF, 1 mL EtOH, 4 mL water): Aggregated
Observation ([2]; 2 mg Klucel LF, 1 mL IPA, 4 mL water): Aggregated
Observation ([2]; 2 mg Klucel LF, 1 mL MeOH, 4 mL water): Aggregated
Observation ([2]; 2 mg Klucel LF, 1 mL THF, 4 mL water): Aggregated
Observation ([2]; 2 mg Lutrol F 127, 1 mL ACE, 4 mL water): Aggregated immediately
Observation ([2]; 2 mg Lutrol F 127, 1 mL EtOH, 4 mL water): Aggregated
Observation ([2]; 2 mg Lutrol F 127, 1 mL MeOH, 4 mL water): Cloudy immediately
Observation ([2]; 2 mg Lutrol F 127, 1 mL THF, 5 mL water): Aggregated
Observation: Aggregated within ([2]; 2 mg Luviskol VA64, 1 mL ACE, 4 mL water): Aggregated within 5 min
Observation: Colloid, Stable for ([2]; 2 mg Luviskol VA64, 1 mL EtOH, 4 mL water): Colloid, Stable for 30 min
Observation ([2]; 2 mg Luviskol VA64, 1 mL EtOH, 7 mL 0.05 mg/mL BAC solution): Aggregated immediately
Observation ([2]; 2 mg Luviskol VA64, 1 mL EtOH, 7 mL 0.05 mg/mL DSS solution): Aggregated immediately
Observation ([2]; 2 mg Luviskol VA64, 1 mL EtOH, 7 mL 0.05 mg/mL Mannitol solution): Aggregated immediately
Observation ([2]; 2 mg Luviskol VA64, 1 mL EtOH, 7 mL 0.05 mg/mL NaOAc solution): Aggregated immediately
Observation ([2]; 2 mg Luviskol VA64, 1 mL EtOH, 7 mL 0.05 mg/mL SDS solution): Aggregated immediately
Observation ([2]; 2 mg Luviskol VA64, 1 mL EtOH, 7 mL 0.05 mg/mL citric acid solution): Aggregated immediately
Observation ([2]; 2 mg Luviskol VA64, 1 mL EtOH, 7 mL 0.5 mg/mL BAC solution): Aggregated immediately
Observation: Aggregated within ([2]; 2 mg Luviskol VA64, 1 mL EtOH, 7 mL 0.5 mg/mL DSS solution): Aggregated within 1 hour
Observation ([2]; 2 mg Luviskol VA64, 1 mL EtOH, 7 mL 0.5 mg/mL Mannitol solution): Aggregated immediately
Observation: Stable for ([2]; 2 mg Luviskol VA64, 1 mL EtOH, 7 mL 0.5 mg/mL NaOAc solution, at RT): Stable for 1 day at RT
Observation: Aggregated within ([2]; 2 mg Luviskol VA64, 1 mL EtOH, 7 mL 0.5 mg/mL SDS solution): Aggregated within 1 hour
Observation ([2]; 2 mg Luviskol VA64, 1 mL EtOH, 7 mL 0.5 mg/mL citric acid solution): Aggregated immediately
Observation ([2]; 2 mg Luviskol VA64, 1 mL IPA, 4 mL water): Aggregated
Observation: Aggregated after ([2]; 2 mg Luviskol VA64, 1 mL MeOH, 4 mL water): Aggregated after 25 min
Observation ([2]; 2 mg Luviskol VA64, 1 mL THF, 4 mL water): Aggregated
Observation ([2]; 2 mg PEG2000, 1 mL ACE, 4 mL water): Aggregated immediately
Observation ([2]; 2 mg PEG2000, 1 mL EtOH, 4 mL water): Aggregated
Observation ([2]; 2 mg PEG2000, 1 mL IPA, 4 mL water): Aggregated
Observation ([2]; 2 mg PEG2000, 1 mL MeOH, 4 mL water): Aggregated
Observation ([2]; 2 mg PEG2000, 1 mL THF, 4 mL water): Aggregated
Observation ([2]; 2 mg PEG6000, 1 mL ACE, 4 mL water): Aggregated immediately
Observation ([2]; 2 mg PEG6000, 1 mL EtOH, 4 mL water): Aggregated
Observation ([2]; 2 mg PEG6000, 1 mL MeOH, 4 mL water): Aggregated
Observation: Aggregated within ([2]; 2 mg PEOX50, 1 mL ACE, 4 mL water): Aggregated within 5 min
Observation: Colloid, Stable for ([2]; 2 mg PEOX50, 1 mL EtOH, 4 mL water): Colloid, Stable for 10 min
Observation: Aggregated within ([2]; 2 mg PEOX50, 1 mL EtOH, 7 mL 0.5 mg/mL DSS solution): Aggregated within 1 hour
Observation: Aggregated within ([2]; 2 mg PEOX50, 1 mL EtOH, 7 mL 0.5 mg/mL NaOAc solution): Aggregated within 1 hour
Observation: Aggregated within ([2]; 2 mg PEOX50, 1 mL EtOH, 7 mL 0.5 mg/mL SDS solution): Aggregated within 1 hour
Observation ([2]; 2 mg PEOX50, 1 mL EtOH, 7 mL 0.5 mg/mL citric acid solution): Aggregated immediately
Observation ([2]; 2 mg PEOX50, 1 mL IPA, 4 mL water): Aggregated
Observation ([2]; 2 mg PEOX50, 1 mL MeOH, 4 mL water): Aggregated
Observation ([2]; 2 mg PEOX50, 1 mL THF, 4 mL water): Aggregated
Observation: Aggregated within ([2]; 2 mg PEOX500, 1 mL ACE, 4 mL water): Aggregated within 5 min
Observation ([2]; 2 mg PEOX500, 1 mL EtOH, 4 mL water): Aggregated
Observation ([2]; 2 mg PEOX500, 1 mL IPA, 4 mL water): Aggregated
Observation ([2]; 2 mg PEOX500, 1 mL MeOH, 4 mL water): Aggregated
Observation ([2]; 2 mg PEOX500, 1 mL THF, 4 mL water): Aggregated
Observation ([2]; 2 mg PMAMVE, 1 mL EtOH, 4 mL water): Aggregated
Observation ([2]; 2 mg PMAMVE, 1 mL MeOH, 4 mL water): Aggregated
Observation: Colloid, Stable for ([2]; 2 mg PVP10, 1 mL EtOH, 4 mL water): Colloid, Stable for 30 min
Observation ([2]; 2 mg PVP10, 1 mL EtOH, 7 mL 0.05 mg/mL BAC solution): Aggregated immediately
Observation ([2]; 2 mg PVP10, 1 mL EtOH, 7 mL 0.05 mg/mL DSS solution): Aggregated immediately
Observation ([2]; 2 mg PVP10, 1 mL EtOH, 7 mL 0.05 mg/mL Mannitol solution): Aggregated immediately
Observation ([2]; 2 mg PVP10, 1 mL EtOH, 7 mL 0.05 mg/mL NaOAc solution): Aggregated immediately
Observation ([2]; 2 mg PVP10, 1 mL EtOH, 7 mL 0.05 mg/mL SDS solution): Aggregated immediately
Observation ([2]; 2 mg PVP10, 1 mL EtOH, 7 mL 0.05 mg/mL citric acid solution): Aggregated immediately
Observation ([2]; 2 mg PVP10, 1 mL EtOH, 7 mL 0.5 mg/mL BAC solution): Aggregated immediately
Observation: Aggregated within ([2]; 2 mg PVP10, 1 mL EtOH, 7 mL 0.5 mg/mL DSS solution): Aggregated within 1 hour
Observation ([2]; 2 mg PVP10, 1 mL EtOH, 7 mL 0.5 mg/mL Mannitol solution): Aggregated immediately
Observation ([2]; 2 mg PVP10, 1 mL EtOH, 7 mL 0.5 mg/mL NaOAc solution): Aggregated immediately
Observation: Aggregated within ([2]; 2 mg PVP10, 1 mL EtOH, 7 mL 0.5 mg/mL SDS solution): Aggregated within 1 hour
Observation ([2]; 2 mg PVP10, 1 mL IPA, 4 mL water): Aggregated
SMILES: CC(C)(C)c1cc(-c2cc(-c3ccc(C(=O)O)cc3)ccc2OCCO)ccc1N1CCCC1 [Compound A, 3″-tert-butyl-4′-(2-hydroxyethoxy)-4″-pyrrolidin-1-yl[1,1′;3′,1″]-terphenyl-4-carboxylic acid]
